Measurements taken from US7361682B2, “Indole derivatives as H3 inverse agonists” (Hoffmann-La Roche Inc., priority 2004, dated 2008).
pKi: −log10 of the molar value.

Biological target: T1, histamine 3 receptor (H3R) (Homo sapiens, UniProt Q9Y5N1)
T1 construct: expressed in transfected cells; host or cells: CHO cells
Experiment: Binding assay with 3H-(R)α-methylhistamine (competition binding, membranes of human HR3-CHO cell line)
Settings: competition against 3H(R)α-Methylhistamine (1 nM), membrane of the human HR3-CHO cell line; Ki calculated from IC50 by Cheng-Prusoff equation
Description: Binding assay with ^3H-(R)α-methylhistamine
Saturation binding experiments were performed using HR^3—CHO membranes prepared as described in Takahashi, K, Tokita, S., Kotani, H. (2003) J. Pharmacol. Exp. Therapeutics 307, 213-218.
An appropriate amount of membrane (60 to 80 μg protein/well) was incubated with increasing concentrations of ^3H(R)α-Methylhistamine di-hydrochloride (0.10 to 10 nM). Non specific binding was determined using a 200 fold excess of cold (R)α-Methylhistamine dihydrobromide (500 nM final concentration). The incubation was carried out at room temperature (in deep-well plates shaking for three hours). The final volume in each well was 250 μl. The incubation was followed by rapid filtration on GF/B filters (pre-soaked with 100 μl of 0.5% PEI in Tris 50 mM shaking at 200 rpm for two hours). The filtration was made using a cell-harvester and the filter plates were then washed five times with ice cold washing buffer containing 0.5 M NaCl. After harvesting, the plates were dried at 55° C. for 60 min, then we added scintillation fluid (Microscint 40, 40 microl in each well) and the amount of radioactivity on the filter was determined in Packard top-counter after shaking the plates for two hours at 200 rpm at room temperature.
Binding Buffer: 50 mM Tris-HCl pH 7.4 and 5 mM MgCl2×6H2O pH 7.4. Washing Buffer: 50 mM Tris-HCl pH 7.4 and 5 mM MgCl2×6H2O and 0.5 M NaCl pH 7.4.
Indirect measurement of affinity of H3R inverse agonists: twelve increasing concentrations (ranging from 10 μM to 0.3 nM) of the selected compounds were always tested in competition binding experiments using membrane of the human HR3—CHO cell line. An appropriate amount of protein, e.g. approximately 500 cpm binding of RAMH at Kd, were incubated for 1 hour at room temperature in 250 μl final volume in 96-well plates in presence of ^3H(R)α-Methylhistamine (1 nM final concentration=Kd). […]
All compounds were tested at a single concentration in duplicates. […] Ki's were calculated from IC50 based on Cheng-Prusoff equation (Cheng, Y, Prusoff, W H (1973) Biochem Pharmacol 22, 3099-3108).

T1 sequence (Q9Y5N1 whole entry): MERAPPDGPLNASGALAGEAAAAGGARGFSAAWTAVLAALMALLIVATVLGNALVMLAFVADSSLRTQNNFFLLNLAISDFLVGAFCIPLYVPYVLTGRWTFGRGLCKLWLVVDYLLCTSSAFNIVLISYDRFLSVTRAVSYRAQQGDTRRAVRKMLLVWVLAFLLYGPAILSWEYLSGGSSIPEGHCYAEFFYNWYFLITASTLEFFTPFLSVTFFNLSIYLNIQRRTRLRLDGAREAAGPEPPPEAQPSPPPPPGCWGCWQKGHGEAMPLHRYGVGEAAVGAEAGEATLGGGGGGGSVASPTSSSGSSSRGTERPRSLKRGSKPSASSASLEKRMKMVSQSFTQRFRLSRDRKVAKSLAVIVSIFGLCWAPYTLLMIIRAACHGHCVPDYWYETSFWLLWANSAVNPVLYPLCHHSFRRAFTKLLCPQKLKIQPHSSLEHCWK

Row | pKi | SMILES
1 | 7.64 | CC(C)N1CCC(Oc2ccc3[nH]c(C(=O)N4CCOCC4)cc3c2)C1 (stereo not drawn) [Example 2, [5-(1-Isopropyl-pyrrolidin-3-yloxy)-1H-indol-2-yl]-morpholin-4-yl-methanone]
2 | 7.11 | CC(C)N1CCN(C(=O)c2cc3cc(OCCC4CCCN4C)ccc3[nH]2)CC1 (stereo not drawn) [Example 117, (4-Isopropyl-piperazin-1-yl)-{5-[2-(1-methyl-pyrrolidin-2-yl)-ethoxy]-1H-indol-2-yl}-methanone]
3 | 7.03 | CC(C)N1CCC(Oc2ccc3cc(C(=O)N4CCSCC4)[nH]c3c2)CC1 [Example 140, [6-(1-isopropyl-piperidin-4-yloxy)-1H-indol-2-yl]-thiomorpholin-4-yl-methanone]
